Measured values from paper PMC11855207, “Synthesis and Evaluation of Aromatic A-Ring 23-Oxavitamin D3 Analogues as Hedgehog Pathway Inhibitors” (International Journal of Molecular Sciences, 2025).
Like-named read-outs stand apart in the source and are kept apart here.

Columns and labels:
[1] = test system: Hh signaling pathway (Gli1 mRNA) in C3H10T1/2 cells; assay: Gli1 mRNA down-regulation (qPCR) in OHC-stimulated C3H10T1/2 cells; format: cell-based, mouse; details: Mus musculus; for mrna remaining at 5 µM: C3H 10T1/2, 5 μM with OHCs 5 μM, 24 h, relative Gli1 mRNA levels compared to OHCs (set to 100%); for IC50: C3H 10T1/2, mean ± SEM
Description: (§1) The VD3 analogues were initially assessed for their ability to inhibit the Hh signaling pathway by evaluating the effects on endogenous Gli1 mRNA levels at a single concentration (5 μM) co-administration of oxysterols (OHCs; 20(S)-hydroxycholesterol, 22(S)-hydroxycholesterol at 5 μM each) in C3H10T1/2 cells, an Hh-dependent mouse embryonic fibroblast (MEF) cell line. […] VD3 derivatives may retain some VDR agonistic activity, thereby compromising the selectivity of these compounds as Hh inhibitors. The selectivity profile of the analogues for Hh inhibition, compared to typical VDR activation, was assessed by measuring the ability to up-regulate Cyp24a1 mRNA levels in the same cellular system and by evaluating their binding to VDR using a fluorescence polarization-based competition assay (Table 1).
(§2) Mouse embryonic fibroblast cell line (C3H10T1/2, wild-type, VDR^−/−, SuFu^−/−), mouse keratinocyte cell line (ASZ001), and human embryonic kidney cell line (HEK293T) were purchased from China Center for Type Culture Collection (CCTCC; Wuhan, Hubei, China) and cultured under standard protocols. […] Therefore, they can be used to assess the inhibitory strength of the Hh signaling and the selectivity of the VDR signaling. VDR^−/− and SuFu^−/− C3H10T1/2 cells were used to study compounds selectivity for Hh and VDR signaling. If compounds regulate Hh signaling independently of VDR, their ability to down-regulate Gli1 mRNA expression should be abolished in SuFu^−/− C3H10T1/2 cells. […] The loss of Ptch in ASZ001 cells […], so down-regulating Gli1 reflects direct Smo inhibition by the compound. Comparing results from ASZ001 and C3H10T1/2 cells highlights the compound’s inhibition of the Hh signaling pathway.
(§3) RNA isolation in C3H10T1/2 cells was performed in 24-well plates (50,000 cells plated; TRIZOL Reagent); in ASZ001, cells were done in 35 mm dishes (300,000 cells plated; TRIZOL Reagent). cDNA synthesis was performed utilizing the SweScript All-in-One RT SuperMix Kit (Servicebio, Wuhan, China) per the manufacturer’s instructions on a BioRad S1000 Thermal Cycler (Hercules, CA, USA). qPCR (Hh signaling pathway and VDR) analysis of target genes was performed on Step OnePlus (ABI) using the Taqman Gene Expression Assays: mouse ActB (Mm00607939_s1), mouse GLI1 (Mm00494645_ml), mouse PTCH1(Mm00436026_m1), and mouse CYP24A1 (Mm00487244_ml). Relative gene expression levels were computed via the ΔΔCt method. ActinB mRNA expression levels of all samples were normalized to DMSO control ActinB mRNA levels (vehicle; set at 1.00). […] The mRNA expression levels from drug-treated samples were compared to OHCs levels (Gli1, PTCH) and DMSO control (Cyp24A1).

[2] = test system: VDR signaling (Cyp24A1 mRNA) in C3H10T1/2 cells; assay: Cyp24A1 mRNA up-regulation (qPCR) in C3H10T1/2 cells; format: cell-based, mouse; details: Mus musculus, C3H 10T1/2, 5 μM with OHCs 5 μM, 24 h, relative to DMSO (set to 1.0)
Description: as §1, §2, §3

[3] = target: T1, recombinant VDR (Homo sapiens, UniProt P11473); assay: VDR binding, fluorescence polarization-based competition assay (PolarScreen VDR Competitor Assay Red); details: compounds evaluated at 100 μM
T1 construct: purchased Thermo Fisher Scientific
T1 sequence (P11473 1-427): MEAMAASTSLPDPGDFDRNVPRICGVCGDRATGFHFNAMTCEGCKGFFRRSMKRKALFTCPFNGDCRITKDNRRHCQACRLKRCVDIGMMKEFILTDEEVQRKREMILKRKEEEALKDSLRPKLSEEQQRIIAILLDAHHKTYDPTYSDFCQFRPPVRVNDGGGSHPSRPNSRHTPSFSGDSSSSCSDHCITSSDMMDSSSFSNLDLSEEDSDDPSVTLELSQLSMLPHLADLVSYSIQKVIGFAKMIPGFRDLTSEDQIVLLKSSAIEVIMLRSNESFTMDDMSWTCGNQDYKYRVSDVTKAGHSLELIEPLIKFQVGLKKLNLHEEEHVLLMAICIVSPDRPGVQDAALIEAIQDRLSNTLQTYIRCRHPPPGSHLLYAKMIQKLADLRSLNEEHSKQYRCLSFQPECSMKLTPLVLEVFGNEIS
Description: as §1
VDR binding assay was performed using a PolarScreen VDR Competitor Assay Red kit (Thermo Fisher Scientific, Carlsbad, CA, USA) per the manufacturer’s instructions. Compounds were evaluated at 100 μM in 2.5% final DMSO in triplicate. Calcitriol is utilized as a positive control for VDR binding.

[4] = test system: Hh signaling pathway (Ptch mRNA) in C3H10T1/2 cells; assay: Ptch mRNA down-regulation (qPCR) in C3H10T1/2 cells; format: cell-based; details: Mus musculus
[5] = test system: Hh signaling pathway (Gli1 mRNA) in ASZ001 cells; assay: Gli1 mRNA down-regulation (qPCR) in ASZ001 cells; format: cell-based; details: Mus musculus
[6] = test system: VDR signaling (Cyp24A1 mRNA) in ASZ001 cells; assay: Cyp24A1 mRNA expression (qPCR) in ASZ001 cells; format: cell-based; details: Mus musculus, read-out: Cyp24A1 mRNA levels relative to DMSO
[7] = test system: primary Ptch-CKO MB cells; assay: Anti-proliferation (MTS) in primary Ptch-CKO MB cells; format: cell-based; details: Mus musculus, 48 h incubation, mean ± SEM
Description: Ptch-CKO MB cells, derived from a conditional Patched knockout mouse, lack Ptch-like ASZ001 cells. Consequently, the inhibitory effect of the compound on Ptch-CKO MB cells directly reflects its suppression of the canonical Hh signaling pathway. Cell viability was assessed by MTS proliferation assay kit (Promega, Madison, WI, USA) according to the manufacturer’s protocol. Culture conditions and experimental protocols to determine GI50 values in the primary murine Ptch-CKO MB cells were as previously described.

[8] = test system: ASZ001 cells; assay: Anti-proliferation (MTS) in ASZ001 cells; format: cell-based; details: Mus musculus, 48 h incubation, mean ± SEM
[9] = test system: Hh signaling (Gli1 mRNA) in VDR−/− C3H10T1/2 cells; assay: Gli1 down-regulation in VDR−/− C3H10T1/2 cells; format: cell-based, mouse; details: 24 h
[10] = test system: Hh signaling (Gli1 mRNA) in SuFu−/− C3H10T1/2 cells; assay: Gli1 down-regulation in SuFu−/− C3H10T1/2 cells; format: cell-based, mouse; details: 24 h
[11] = test system: Cyp24A1 mRNA in VDR−/− C3H10T1/2 cells; assay: Cyp24A1 up-regulation in VDR−/− C3H10T1/2 cells; format: cell-based, mouse; details: 24 h
[12] = test system: Cyp24A1 mRNA in SuFu−/− C3H10T1/2 cells; assay: Cyp24A1 up-regulation in SuFu−/− C3H10T1/2 cells; format: cell-based, mouse; details: 24 h
[13] = target: T2, Smo protein (Homo sapiens, UniProt Q99835); assay: Surface plasmon resonance (SPR) binding to Smo; details: 2.5, 5, 10 μM in PBS, 4 °C
T2 construct: purchased ACRO Biosystems SMO-H52P3
T2 sequence (Q99835 28-787): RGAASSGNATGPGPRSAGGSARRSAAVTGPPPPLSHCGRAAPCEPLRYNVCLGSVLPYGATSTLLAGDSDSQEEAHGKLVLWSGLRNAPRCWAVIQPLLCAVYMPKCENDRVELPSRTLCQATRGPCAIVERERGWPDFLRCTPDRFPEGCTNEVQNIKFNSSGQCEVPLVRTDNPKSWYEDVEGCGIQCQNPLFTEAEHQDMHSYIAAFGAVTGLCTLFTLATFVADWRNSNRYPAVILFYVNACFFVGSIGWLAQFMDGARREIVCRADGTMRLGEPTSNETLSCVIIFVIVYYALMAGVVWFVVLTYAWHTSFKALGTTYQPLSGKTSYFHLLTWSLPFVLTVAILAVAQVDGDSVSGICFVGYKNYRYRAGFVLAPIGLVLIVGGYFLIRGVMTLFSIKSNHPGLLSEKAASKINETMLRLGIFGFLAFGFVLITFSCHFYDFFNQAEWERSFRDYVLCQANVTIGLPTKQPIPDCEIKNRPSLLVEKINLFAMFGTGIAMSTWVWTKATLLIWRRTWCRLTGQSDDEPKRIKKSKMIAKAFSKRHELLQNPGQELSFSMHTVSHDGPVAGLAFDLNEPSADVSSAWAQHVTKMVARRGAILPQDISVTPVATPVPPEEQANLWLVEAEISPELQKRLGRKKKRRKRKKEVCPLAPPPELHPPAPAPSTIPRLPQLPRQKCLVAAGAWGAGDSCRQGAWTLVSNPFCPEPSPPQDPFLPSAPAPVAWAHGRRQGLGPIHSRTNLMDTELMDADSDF
Description: Surface plasmon resonance (SPR) was used to evaluate the binding capacity of the compounds 3j and 4i to Smo. […] To investigate the binding sites of the analogues on Smo, the ability of 3j and 4i to displace BODIPY-Cyc from HEK293T cells overexpressing full-length human Smo was evaluated. […] Smo contains two small molecule binding sites, one located in the extracellular cysteine-rich domain (CRD) and the other in the 7-transmembrane helix (7-TM) region. […] Endogenous oxidized sterols can regulate Smo activity by binding CRD [27]. These analogues, as mimetics of steroid hormones, may interact with Smo by binding to CRD.
SPR analysis was conducted as described in papers. The analyses of interactions between Smo protein (ACRO Biosystems, SMO-H52P3, Newark, DE, USA) and compounds at different concentrations (2.5, 5, 10 μM) was performed in PBS and a flow rate of 2 μL/s at 4 °C. The sensor chip surface was regenerated by injection of 0.5% SDS: Glycine-HCl (pH = 2.0) = 1:1 solution.

[14] = target: T3, full-length human Smo (Homo sapiens, UniProt Q99835); assay: BODIPY-Cyc displacement (flow cytometry) in HEK293T cells overexpressing Smo; format: binding; details: up to 10 μM
T3 construct: HEK293T cells overexpressing full-length human Smo was evaluated; expressed in transfected cells; host or cells: HEK293T
T3 sequence (Q99835 28-787): as above

[15] = test system: Hh signaling pathway; assay: Anti-Hh activity in combination with vismodegib; format: cell-based; details: combined with vismodegib 100 nM
[16] = C3H 10T1/2, C3H10T1/2 cells, mean ± SEM, read-out: Ptch IC50
[17] = ASZ001 cells, mean ± SEM, read-out: Gli1 IC50
[18] = ASZ001 cells, 5 μM, 24 h, DMSO set to 1.0

Compound `CC(C)COC[C@@H](C)[C@H]1CC[C@H]2[C@@H](OC(=O)c3cc(O)cc(O)c3)CCC[C@]12C` [Compound 3j] has a mrna remaining at 5 µM [1] of 2.4 ± 0.4%, an IC50 [1] of 1.8 ± 0.3 µM and a fold induction at 5 µM [2] of 11.4 ± 1.3. For the same compound, the “VDR Binding” value [3] was greater than 100 µM, the IC50 [4, 16] was 3.6 ± 0.5 µM and the IC50 [5, 17] was 5.5 ± 0.7 µM. For the same compound, the fold induction at 5 µM [6, 18] was 2.1 ± 0.3, the GI50 [7] was 6.7 ± 0.8 µM and the GI50 [8] was 13.4 ± 1.4 µM. For the same compound, the “Ability to inhibit Hh signaling (Gli1 down-regulation) versus wild-type cells” value [9] was “modestly reduced”, the “Ability to inhibit Hh signaling (Gli1 down-regulation) versus wild-type cells” value [10] was “mostly abolished” and the “Ability to up-regulate Cyp24A1 versus wild-type cells” value [11] was “significantly reduced”. The “Ability to up-regulate Cyp24A1 versus wild-type cells” value [12] was “significantly reduced”, the “SPR interaction with Smo” value [13] was “exhibited interactions with Smo” and the “Displacement of BODIPY-Cyc from Smo” value [14] was “neither 3j nor 4i affected BODIPY-Cyc-Smo binding interactions”. The “Change of IC50 value in combination with vismodegib” value [15] was “did not change the IC50 value”.
`C[C@H](COCC(C)(C)O)[C@H]1CC[C@H]2[C@@H](OC(=O)c3cc(O)cc(O)c3)CCC[C@]12C` [Compound 4i] gave a mrna remaining at 5 µM [1] of 1.7 ± 0.3%, an IC50 [1] of 1.1 ± 0.1 µM and a fold induction at 5 µM [2] of 129 ± 16.8. The “VDR Binding” value [3] was greater than 100 µM, the IC50 [4, 16] was 1.9 ± 0.3 µM and the IC50 [5, 17] was 1.8 ± 0.3 µM. The fold induction at 5 µM [6, 18] was 87.4 ± 10.6, the GI50 [7] was 2.2 ± 0.3 µM and the GI50 [8] was 5.8 ± 0.8 µM. The “Ability to inhibit Hh signaling (Gli1 down-regulation) versus wild-type cells” value [9] was “modestly reduced”, the “Ability to inhibit Hh signaling (Gli1 down-regulation) versus wild-type cells” value [10] was “mostly abolished” and the “Ability to up-regulate Cyp24A1 versus wild-type cells” value [11] was “significantly reduced”. The “Ability to up-regulate Cyp24A1 versus wild-type cells” value [12] was “significantly reduced”, the “SPR interaction with Smo” value [13] was “exhibited interactions with Smo” and the “Displacement of BODIPY-Cyc from Smo” value [14] was “neither 3j nor 4i affected BODIPY-Cyc-Smo binding interactions”. For the same compound, the “Change of IC50 value in combination with vismodegib” value [15] was “did not change the IC50 value”.
`CC1=C2C[C@H]3[C@@H](CC=C4C[C@@H](O)CC[C@@]43C)[C@@H]2CC[C@]12O[C@@H]1C[C@H](C)CN[C@H]1[C@H]2C` [Cyclopamine, reference compound] was tested, and the “Displacement of BODIPY-Cyc from Smo” value [14] was “displaced BODIPY-Cyc in a concentration-dependent manner” and the “Displacement of BODIPY-Cyc from Smo” value ([14]; listed as Cyc) was “displaced BODIPY-Cyc in a dose-dependent manner”.
For `C=C1CC[C@H](O)C/C1=C/C=C1\CCC[C@]2(C)[C@@H]([C@H](C)CCCC(C)C)CC[C@@H]12` [VD3, Vitamin D3], the mrna remaining at 5 µM [1] was 32.5 ± 0.6%, the IC50 [1] was 4.2 ± 0.4 µM and the fold induction at 5 µM [2] was 8350 ± 102. The “VDR Binding” value [3] was greater than 100 µM, the IC50 ([4]; C3H 10T1/2, read-out: Ptch IC50) was 3.3 ± 0.4 µM and the IC50 ([5]; ASZ001, read-out: Gli1 IC50) was 2.1 ± 0.2 µM. For the same compound, the fold induction at 5 µM ([6]; ASZ001, 24 h) was 821 ± 26.3, the GI50 [7] was 6.4 ± 0.7 µM and the GI50 [8] was 15.6 ± 1.7 µM.
In the case of `CS(=O)(=O)c1ccc(C(=O)Nc2ccc(Cl)c(-c3ccccn3)c2)c(Cl)c1` [Vismodegib, reference compound], the GI50 [7] is reported as 0.78 ± 0.1 µM, the GI50 [8] is reported as 2.1 µM and the “Ability to inhibit Hh signaling (Gli1 down-regulation) versus wild-type cells” value [10] is reported as “no activity”.
